*1 amine or outer side, *2 acyl side, *3 side chain or, on linkers, in order; H or OH if unused. Where no end group is shown, it is not given here. [ ]: non-standard residue; d: D form. Tyr(125I) = 125I-iodinated Tyr, O=C([C@H](Cc1ccc(O[*:3])c([125I])c1)N[*:1])[*:2]; Tyr(3-I) = N[C@@H](Cc1ccc(O)c(I)c1)C(=O)O
Key:
[1] = target: CEGPCR19.2 (Caenorhabditis elegans, UniProt H2KZY4); test: calcium mobilization assay (FLIPR), transiently transfected CHO cells, CEGPCR19.2; format: cell-based, C. elegans; conditions: Table 13; peptides at 10 μM
Procedure: Changes in intracellular calcium levels are another recognized indicator of […] receptor activity, and such assays can be employed to assay for modulators of GPCR-like receptor activity. For example, CHO cells stably transfected with a GPCR-like receptor expression construct are plated at a density of 4×10^4 cells/well in Packard black-walled 96-well plates specially designed to isolate fluorescent signals to individual wells. The cells are incubated for 60 minutes at 37° C. in modified Dulbecco's PBS (D-PBS), containing 36 mg/L pyruvate and 1 g/L glucose with the addition of 2.5 mM probenecid (Sigma Chemical Co.) and one of four calcium indicator dyes (Fluo3™ AM, Fluo4™ AM, Calcium Green™-1 AM, or Oregon Green™ 488 BAPTA-1 AM) at a concentration of 4 μM. Plates are washed once with modified D-PBS […] 1% fetal bovine serum and incubated for 10 minutes at 37° C. to remove residual dye from the cellular membrane. In addition, a series of washes with modified D-PBS is performed immediately prior to activation of the calcium response.
Calcium response is initiated by the addition of one or more candidate receptor agonist compounds, or a positive control such as a calcium ionophore A23187 (10 μM), or ATP (4 μM). Fluorescence is measured by Molecular Device's FLIPR with an argon laser, excitation at 488 nm. […] Basal fluorescence of cells was measured for 20 seconds prior to addition of agonist, ATP, or A23187, and was subtracted from the response signal. The calcium signal is measured for approximately 200 seconds, taking readings every two seconds. […]
This appears especially useful for the assessment of possible activation of orphan GPCRs (i.e., GPCRs having unknown functions and unknown signaling pathways). […] Because the GTPγS assay is known to poorly recognize GPCRs coupled to the Gq class of G-proteins, a Ca^+2 mobilization assay, based on a FLIPR readout, was used as well to evaluate putative Gq-couplcd orphan GPCRs transiently transfected into CHO cells. […] Without the temperature downshift, expression of functional receptor could not be detected. […]

[2] = target: T1, CEGPCR4 receptor (Caenorhabditis elegans, UniProt A0A078BTK0); test: [35S]GTPγS binding assay, membranes of CHO cells transfected with CEGPCR4; format: biochemical, C. elegans
T1 sequence (A0A078BTK0 1-376): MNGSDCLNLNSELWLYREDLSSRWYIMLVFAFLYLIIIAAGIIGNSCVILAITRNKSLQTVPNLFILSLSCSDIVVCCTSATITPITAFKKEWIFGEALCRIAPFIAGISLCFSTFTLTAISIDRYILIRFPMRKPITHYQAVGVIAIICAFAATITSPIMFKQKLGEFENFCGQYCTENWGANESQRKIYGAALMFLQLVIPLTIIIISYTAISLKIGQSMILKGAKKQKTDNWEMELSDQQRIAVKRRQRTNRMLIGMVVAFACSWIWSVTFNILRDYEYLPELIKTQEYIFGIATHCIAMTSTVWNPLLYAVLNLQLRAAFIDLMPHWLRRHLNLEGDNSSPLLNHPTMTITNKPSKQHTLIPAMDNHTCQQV
Procedure: Recombinant pCR3.1 clones encoding invertebrate GPCR-like receptors were transformed into wild-type CHO-K1 cells and functional expression was achieved using a temperature-shift incubation protocol. The CHO-K1 cells were cultured at 37° C. in a humidified atmosphere of 5% CO2 in air in DMEM medium supplemented with 10% heat-inactivated fetal bovine serum (i.e., FBS), 10 μg/ml gentamicin, and 0.1 mM nonessential amino acids to give complete DMEM medium. Additionally, for incubations at temperatures lower than 37° C., the medium was fortified with 10 mM HEPES (pH 7.4). Cells were transfected with recombinant pCR3.1 clones containing GPCR-like receptor DNAs, using LipofectAMINE PLUS™, essentially according to the manufacturer's instructions. […] In separate plastic tubes, PLUS (20 μl/plate; Life Technologies) was added to 0.75 ml/plate of recombinant plasmid DNA in OptiMEM (5 μg/plate; Gibco/BRL—Life Technologies), mixed and incubated at room temperature for 15 minutes. Separately, LipofectAMINE (30 μl/plate) was mixed with 0.75 ml OptiMEM and added to the pre-complexed DNA/PLUS mixture and incubated at room temperature for 15 minutes. […]
To assess expression, membranes were prepared from transfected CHO-K1 cells. […] Membrane protein concentration was determined using the BCA Protein Assay Reagent from Pierce (Rockford, Ill.), with bovine serum albumin (i.e., BSA) as a standard. […]

[3] = target: T2, CEGPCR12h receptor (Caenorhabditis elegans, UniProt Q20275); test: [35S]GTPγS binding assay, CEGPCR12h expressed in CHO cells; format: biochemical, C. elegans
T2 sequence (Q20275 1-402): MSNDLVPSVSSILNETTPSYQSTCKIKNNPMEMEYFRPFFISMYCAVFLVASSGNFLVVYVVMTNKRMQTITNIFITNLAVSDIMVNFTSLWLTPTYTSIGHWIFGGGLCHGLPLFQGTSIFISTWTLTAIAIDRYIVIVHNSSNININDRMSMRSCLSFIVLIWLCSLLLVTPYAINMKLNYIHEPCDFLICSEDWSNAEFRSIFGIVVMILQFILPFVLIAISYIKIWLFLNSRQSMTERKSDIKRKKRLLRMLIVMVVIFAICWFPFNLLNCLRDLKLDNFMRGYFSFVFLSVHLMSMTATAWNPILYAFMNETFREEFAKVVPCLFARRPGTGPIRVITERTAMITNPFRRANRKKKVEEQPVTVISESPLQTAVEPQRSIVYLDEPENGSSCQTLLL
Procedure: Recombinant pCR3.1 clones encoding invertebrate GPCR-like receptors were transformed into wild-type CHO-K1 cells and functional expression was achieved using a temperature-shift incubation protocol. The CHO-K1 cells were cultured at 37° C. in a humidified atmosphere of 5% CO2 in air in DMEM medium supplemented with 10% heat-inactivated fetal bovine serum (i.e., FBS), 10 μg/ml gentamicin, and 0.1 mM nonessential amino acids to give complete DMEM medium. Additionally, for incubations at temperatures lower than 37° C., the medium was fortified with 10 mM HEPES (pH 7.4). Cells were transfected with recombinant pCR3.1 clones containing GPCR-like receptor DNAs, using LipofectAMINE PLUS™, essentially according to the manufacturer's instructions. […] In separate plastic tubes, PLUS (20 μl/plate; Life Technologies) was added to 0.75 ml/plate of recombinant plasmid DNA in OptiMEM (5 μg/plate; Gibco/BRL—Life Technologies), mixed and incubated at room temperature for 15 minutes. Separately, LipofectAMINE (30 μl/plate) was mixed with 0.75 ml OptiMEM and added to the pre-complexed DNA/PLUS mixture and incubated at room temperature for 15 minutes. The culture medium was then replaced with serum-free transfection medium (DMEM, 5 ml/plate). The DNA-PLUS-LipofectAMINE complex was then added to the plates (1.5 ml/plate) and mixed gently into the medium, followed by a 3 hour incubation at 37° C. in 5% CO2. At this time, the medium was supplemented with complete DMEM medium containing 20% FBS (6.5 ml/plate) and incubation was continued at 37° C. in 5% CO2. After a total of 24 hours at 37° C. in 5% CO2, the medium was replaced with complete DMEM medium fortified with 10 mM HEPES (10 ml/plate) and the cells were moved to an incubator maintained at 28-30° C. in a humidified atmosphere of 5% CO2 in air. The incubation continued for an additional 24 hours, typically at the lower temperature indicated above. A plasmid encoding Green Fluorescent Protein (i.e., GFP, 4 μg/plate) was used for transient GFP expression in CHO-K1 cells to estimate the transfection yields under the same conditions as used for GPCR-like receptor polynucleotides.
To assess expression, membranes were prepared from transfected CHO-K1 cells. Transfected cells were washed once with ice-cold Dulbecco's phosphate-buffered saline (i.e., PBS), 5 ml per 10 cm plate, and the cells were scraped into 5 ml of the same buffer. Cell suspensions from multiple plates were combined and centrifuged at 500×g for 10 minutes at 4° C. The cell pellet was reconstituted in ice-cold TEE (25 mM Tris, pH 7.4, 5 mM EGTA, 5 mM EDTA). Convenient aliquots were snap-frozen in liquid nitrogen and stored at −70° C. After thawing, the cells were homogenized and centrifuged at 500×g for 5 minutes at 4° C. to pellet nuclei and unbroken cells. Tile supernatant was centrifuged at 47,000×g for 30 minutes at 4° C. The membrane pellet was washed once with TEE, resuspended in 20 mM HEPES, pH 7.4, 100 mM NaCl, 10 mM MgCl2, 1 mM EDTA (assay buffer), distributed into aliquots of 0.5-1.0 ml, and frozen in liquid nitrogen. Membrane aliquots were stored at −70° C. Membrane protein concentration was determined using the BCA Protein Assay Reagent from Pierce (Rockford, Ill.), with bovine serum albumin (i.e., BSA) as a standard.
Aliquots of cell membranes prepared as described above and stored at −70° C. were thawed, homogenized, and diluted into buffer containing 20 mM HEPES, pH 7.4, 10 mM MgCl2, 1 mM EDTA, and 100 mM NaCl at a concentration of 10-50 μg/ml. Reaction mixtures were prepared in 96-well polypropylene plate, Nunc. Twenty microliters of a 10× putative modulator compound (including but not limited to potential peptide ligands) solution or a water control (20 μl), 18.2 µM GDP (0.11 ml, 10 μM final concentration), and a membrane preparation were mixed and placed on ice. The modulator/ligand-GDP-membrane mixtures were incubated for 20 minutes at room temperature on a shaking platform and then placed on ice.

[4] = test system: CEGPCR12c; test: [35S]GTPγS binding assay, membranes of CHO cells transfected with CEGPCR12c; format: biochemical, C. elegans
[5] = target: T1, CEGPCR4 receptor; test: Flp18 binding assay: [125I]YDVPGVLRFamide binding and competition on CEGPCR4/CHO membranes; design: species or system C. elegans; conditions: in words
Procedure: A peptide ligand screening assay that measures ligand binding to a suitable GPCR-like receptor according to the invention is exemplified using a modified C. elegans Flp18 peptide ligand.
Membranes for use in the assay are derived from cells stably transfected with a GPCR-like receptor expression construct. The transfected cells are grown in 10 cm dishes to subconfluence, rinsed once with 5 ml of ice-cold Ca^2+/Mg^2+—free PBS, and scraped into 5 ml of the same buffer. Cells are pelleted by centrifugation (500×g, 5 minutes), resuspended in 25 mM Tris, pH 7.5, 5 mM EDTA, 5 mM EDTA, pH 7.5 (TEE), and frozen in liquid nitrogen. After thawing, the cells are homogenized using a Dounce homogenizer (one ml TEE per plate of cells), and centrifuged at 1,000×g for 5 minutes to remove nuclei and unbroken cells.
The homogenate supernatant is centrifuged at 20,000×g for 20 minutes to isolate the membrane fraction, and the membrane pellet is washed once with TEE and resuspended in binding buffer (20 mM HEPES, pH 7.5, 150 mM NaCl, 10 mM MgCl2, 1 mM EDTA). […]
The peptide ligand screening assay is facilitated by use of 96-well plates Millipore Multiscreen® filtration plates (FB opaque 1.0 μM glass fiber type B, catalog number MAFBNOB50). […] The following day, the plate is counted in a Microbeta® scintillation counter.

[6] = target: T3, CEGPCR7 (C. elegans), Q18534; test: cell-based or functional assay
T3 chain: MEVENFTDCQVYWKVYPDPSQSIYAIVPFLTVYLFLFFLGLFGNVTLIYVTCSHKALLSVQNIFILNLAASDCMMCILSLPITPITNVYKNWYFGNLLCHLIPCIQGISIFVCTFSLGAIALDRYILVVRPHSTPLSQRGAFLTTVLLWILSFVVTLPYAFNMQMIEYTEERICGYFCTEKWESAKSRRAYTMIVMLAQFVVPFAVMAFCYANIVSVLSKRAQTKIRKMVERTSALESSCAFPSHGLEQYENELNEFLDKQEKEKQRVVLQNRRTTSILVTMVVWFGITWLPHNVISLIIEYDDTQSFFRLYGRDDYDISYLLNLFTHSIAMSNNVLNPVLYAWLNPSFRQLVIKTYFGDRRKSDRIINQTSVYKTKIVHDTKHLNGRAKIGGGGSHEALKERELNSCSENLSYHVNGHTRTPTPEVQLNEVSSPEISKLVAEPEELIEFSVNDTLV

[7] = target: T4, CEGPCR4 (C. elegans); test: radioligand binding to CEGPCR4/CHO membranes
T4 construct: Expressed in CHO cells; also called CEGPCR4 receptor; CEGPCR4/CHO membranes
T4 chain: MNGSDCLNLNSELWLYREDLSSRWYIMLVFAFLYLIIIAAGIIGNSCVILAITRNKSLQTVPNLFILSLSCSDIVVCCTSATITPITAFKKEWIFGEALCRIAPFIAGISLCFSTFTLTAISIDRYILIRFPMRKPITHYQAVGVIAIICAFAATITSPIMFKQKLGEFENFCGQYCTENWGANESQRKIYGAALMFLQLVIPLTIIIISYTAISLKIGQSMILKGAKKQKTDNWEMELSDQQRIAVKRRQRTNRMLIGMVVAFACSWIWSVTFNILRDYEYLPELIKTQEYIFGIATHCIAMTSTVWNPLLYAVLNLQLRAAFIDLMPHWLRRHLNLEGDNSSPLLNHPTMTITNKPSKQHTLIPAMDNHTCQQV

[8] = membranes from cells transfected and maintained at 37° C.
[9] = temperature shift to 28° C. 24 hours after transfection

Chain of CEGPCR19.2 (H2KZY4 entry or part of it): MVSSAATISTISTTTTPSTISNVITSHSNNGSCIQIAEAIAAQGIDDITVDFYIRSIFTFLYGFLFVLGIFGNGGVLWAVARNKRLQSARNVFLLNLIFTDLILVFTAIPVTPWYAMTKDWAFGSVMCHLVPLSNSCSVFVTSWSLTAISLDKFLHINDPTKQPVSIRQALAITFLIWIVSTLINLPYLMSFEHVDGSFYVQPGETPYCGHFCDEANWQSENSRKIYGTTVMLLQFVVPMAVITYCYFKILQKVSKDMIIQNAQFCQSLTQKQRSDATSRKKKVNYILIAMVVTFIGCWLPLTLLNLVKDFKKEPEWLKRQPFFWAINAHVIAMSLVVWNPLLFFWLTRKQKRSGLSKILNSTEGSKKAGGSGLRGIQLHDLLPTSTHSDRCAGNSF

LQPNFLRF-NH2
activity at single concentration [1]: peptides active

PDVDHVFLRF-NH2 [PDVDHVFLRF-NH2]
receptor activation by matched ligand [2, 8]: not detectably activated | ligand-induced [35S]GTPγS binding [2, 9]: significant stimulation | EC50 ([3]; EC50): 330 nM | EC50 ([3]; EC50 range, Table 11, one range for the group, results apply to all CEGPCR12 isoforms): 300 to 500 nM | receptor activation by matched ligand [4, 8]: not detectably activated | ligand-induced [35S]GTPγS binding [4, 9]: significant stimulation

SQPNFLRF-NH2
activity at single concentration [1]: peptides active

[^125I-Y]DVPGVLRF-NH2 ([Tyr(125I)]DVPGVLRF-NH2)
Kd, binding to the CEGPCR4/CHO membranes [5]: subnanomolar range

B1: …-NH2 (AF9) (peptide)
peptide: GLGPRPLRF-NH2
AF9-induced [35S]GTPγS binding, constant 37° C. (third experiment) [6]: 1.4 fold

B2: 3-Iodo-Y-DVPGVLRF-NH2 (peptide)
peptide: [Tyr(3-I)]DVPGVLRF-NH2
modifications: N-terminus assumed
SMILES: CC(C)C[C@H](NC(=O)[C@@H](NC(=O)CNC(=O)[C@@H]1CCCN1C(=O)[C@@H](NC(=O)[C@H](CC(=O)O)NC(=O)[C@@H](N)Cc1ccc(O)c(I)c1)C(C)C)C(C)C)C(=O)N[C@@H](CCCNC(=N)N)C(=O)N[C@@H](Cc1ccccc1)C(N)=O
notes: Synthetic flp18 analog; the radioiodinated form is treated as the same molecule
Kd [7]: < 1 nM

— US6632621B1, “G protein-coupled receptor-like receptors and modulators thereof” (priority 1999, dated 2003)
